From ChEMBL document CHEMBL1155463 (J Med Chem, 2010)
≈ marks a conversion by molar mass, not a printed value.

Legend:
physchem [1] = conditions: phosphate buffer, pH 9.9
Description: Thermodynamic solubility in 50 mM aqueous phosphate buffer of pH 9.9 at 22.5 degC by HPLC analysis

physchem [2] = conditions: octanol/water, pH 7.4
physchem [3] = conditions: octanol/water
Description: Lipophilicity, log P of the compound

physchem [4] = assay: physchem
Description: Ionization constant, pKa by spectrophotometry

physchem [5] = conditions: aqueous solution, pH 1
Description: Chemical stability in aqueous solution at pH 1 after 2 hrs

SMILES	solubility thermodynamic (physchem [1])	logD (physchem [2])	logP (physchem [3])	pKa (physchem [4])	remaining at 2 h (physchem [5])
CC1(C)CCCN(Cc2ccc3c(c2)OCO3)C1	0.053 mM (≈ 13.1 µg/mL)	2.3	4.3	9.4	
O=C1CCCN1Cc1ccc2c(c1)OCO2	6.8 mM (≈ 1490 µg/mL)	1.2	1.2		
c1cc2c(cc1CN1CCCCC13COC3)OCO2	2.9 mM (≈ 758 µg/mL)	2.2	2.4	7	
CN(C)CCCCc1ccc(C2(F)COC2)cc1	24 mM (≈ 6030 µg/mL)	-0.5	2	9.9	
O=C1CCN(Cc2ccc3c(c2)OCO3)C1	19 mM (≈ 4170 µg/mL)	0.1	-0.1	6.1	
CC1(C)CCCN1Cc1ccc2c(c1)OCO2	0.18 mM (≈ 42 µg/mL)	0.9	3.5	10	
c1cc2c(cc1CN1CCOCC1)OCO2	36 mM (≈ 7970 µg/mL)	1.5	1.6	7	
CN(C)CCCCc1ccc(C2COC2)cc1	17 mM (≈ 3970 µg/mL)	-0.1	2.4	9.9	83%
c1cc2c(cc1CN1CCC3(COC3)C1)OCO2	3 mM (≈ 742 µg/mL)	0.7	1.5	8.1	
CC1(C)CCN1Cc1ccc2c(c1)OCO2	1.7 mM (≈ 373 µg/mL)	0.1	2.8	10.1	
CN(C)CC(C)(C)CCc1ccc(C(C)(C)C)cc1	0.004 mM (≈ 1.05 µg/mL)				
c1cc2c(cc1CN1CCCC1)OCO2	2.8 mM (≈ 575 µg/mL)	0.2	2.5	9.7	
CN(C)CCC1(Cc2ccc(C(C)(C)C)cc2)COC1	15 mM (≈ 4130 µg/mL)	1.7	3.5	9.2	
CN(C)CCCCc1ccc(C(C)(C)C)cc1	< 0.004 mM		5		
CN(C)CCCC1(c2ccc(C(C)(C)C)cc2)COC1	0.98 mM (≈ 270 µg/mL)	1.7	3.9	9.6	
c1cc2c(cc1CN1CCCCC1)OCO2	2.1 mM (≈ 460 µg/mL)			9.6	
CN(C)C1(CCCc2ccc(C(C)(C)C)cc2)COC1	0.21 mM (≈ 57.8 µg/mL)	3.3	3.6	7.2	
CC1(C)CN(Cc2ccc3c(c2)OCO3)C1	1.3 mM (≈ 285 µg/mL)	0.8	3.1	9.6	

SMILES	solubility thermodynamic (physchem [1])	logD (physchem [2])	logP (physchem [3])	pKa (physchem [4])	remaining at 2 h (physchem [5])
c1cc2c(cc1CN1CCC1)OCO2	13 mM (≈ 2490 µg/mL)	-0.1	2.1	9.5	
CN(C)CCCC(C)(C)c1ccc(C(C)(C)C)cc1	< 0.004 mM				
O=C1CCCCN1Cc1ccc2c(c1)OCO2	27 mM (≈ 6300 µg/mL)	1.6	1.6		
O=C1CCN1Cc1ccc2c(c1)OCO2	10 mM (≈ 2050 µg/mL)	1.1	1.1		
CC1(C)CCN(Cc2ccc3c(c2)OCO3)CC1	0.89 mM (≈ 220 µg/mL)	2.3	4.4	9.5	
c1cc2c(cc1CN1CCCC13COC3)OCO2	8.5 mM (≈ 2100 µg/mL)	1.9	1.9	6.3	
CC1(C)CCCCN1Cc1ccc2c(c1)OCO2	0.12 mM (≈ 29.7 µg/mL)	1.1	3.9	10.2	
c1cc2c(cc1CN1CC3(COC3)C1)OCO2	100 mM (≈ 23300 µg/mL)	0.5	1.2	8	
c1cc2c(cc1CN1CC3CC(C1)O3)OCO2	> 11 mM			7.1	
CN(C)CCCCc1ccc(C2(O)COC2)cc1	300 mM (≈ 74800 µg/mL)			9.6	
CN(C)CCC(C)(C)Cc1ccc(C(C)(C)C)cc1				9.5	
c1cc2c(cc1CN1CCCC3(COC3)C1)OCO2	7.7 mM (≈ 2010 µg/mL)	1.7	2.3	7.9	
CC1(C)CCN(Cc2ccc3c(c2)OCO3)C1	0.17 mM (≈ 39.7 µg/mL)	1.4	3.7	9.7	
CCc1ccc(CCCCN(C)C)cc1	0.25 mM (≈ 51.3 µg/mL)	1.8	4.3	9.9	
O=C1CCCN(Cc2ccc3c(c2)OCO3)C1	9 mM (≈ 2100 µg/mL)	0.1	0.5	7.6	
c1cc2c(cc1CN1CCC3(CC1)COC3)OCO2	5.4 mM (≈ 1410 µg/mL)	1	2	8.3	
CN(C)CCCCc1ccc(C2(C)COC2)cc1	18 mM (≈ 4450 µg/mL)	0.8	3.3	9.9	
c1cc2c(cc1CN1CCC13COC3)OCO2	6 mM (≈ 1400 µg/mL)	1.3	1.3	6.2	
